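Tested at 5 concentrations; 48 h exposure; 96-well plates; endpoints linearly interpolated, else capped at highest concentration. At the GI50, growth is halved.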 Calls of active or inactive are those of the source. No stated cut-off is given here; in the data, active = GI50 up to about 1.1 µM and inactive = higher.
Legend:
Experiment in all cases: NCI anticancer screen, dose series, 48 h
DU-145 = tested on: DU-145
NCI-H23 = tested on: NCI-H23
HCT-116 = tested on: HCT-116
HOP-62 = tested on: HOP-62
COLO 205 = tested on: COLO 205
PC-3 = tested on: PC-3
OVCAR-5 = tested on: OVCAR-5
IGROV-1 = tested on: IGROV-1
MCF7 = tested on: MCF7
RPMI-8226 = tested on: RPMI-8226
CCRF-CEM = tested on: CCRF-CEM
SNB-19 = tested on: SNB-19
SF-295 = tested on: SF-295
SW-620 = tested on: SW-620
A549 = tested on: A549
SN12C = tested on: SN12C
MDA-N = tested on: MDA-N
UACC-257 = tested on: UACC-257
T47D = tested on: T47D

Measured: GI50

OCCNC1c2cc(Cl)ccc2-c2c(Cl)cc(Cl)cc21 (configuration not stated)
inactive: DU-145 > 100 µM | NCI-H23 39.2 µM | HCT-116 26.5 µM | HOP-62 41.2 µM | COLO 205 54.8 µM | PC-3 23.3 µM | OVCAR-5 42.2 µM | IGROV-1 13.2 µM | MCF7 17.2 µM | RPMI-8226 33.1 µM | CCRF-CEM 23.2 µM | SNB-19 39.4 µM | SF-295 35.6 µM | SW-620 30.3 µM | A549 30 µM | SN12C 25.5 µM | MDA-N 26.9 µM | UACC-257 31.3 µM | T47D 36.1 µM

O=c1[nH]c(=O)n(C2COC(CO)C2O)cc1F (configuration not stated)
inactive: DU-145 29.8 µM | NCI-H23 15.1 µM | HCT-116 9.98 µM | HOP-62 17.7 µM | COLO 205 25.1 µM | PC-3 36.1 µM | OVCAR-5 > 100 µM | IGROV-1 32.4 µM | MCF7 8.41 µM | RPMI-8226 36.5 µM | CCRF-CEM 74.8 µM | SNB-19 > 100 µM | SF-295 30.5 µM | SW-620 55.3 µM | A549 17.3 µM | SN12C 28.3 µM | MDA-N 25.2 µM | UACC-257 60.4 µM | T47D 50.6 µM

O=C(O)c1ccccc1/C=C1\Cc2ccccc2C1=O
inactive: DU-145 > 100 µM | NCI-H23 > 100 µM | HCT-116 > 100 µM | HOP-62 > 100 µM | COLO 205 48.4 µM | PC-3 > 100 µM | OVCAR-5 > 100 µM | IGROV-1 > 100 µM | MCF7 > 100 µM | RPMI-8226 71.4 µM | CCRF-CEM > 100 µM | SNB-19 > 100 µM | SF-295 > 100 µM | SW-620 > 100 µM | A549 > 100 µM | SN12C > 100 µM | MDA-N > 100 µM | UACC-257 > 100 µM | T47D > 100 µM

Cc1ccc(Nc2nc(C)c(C(=O)CC(=O)C(=O)Nc3c(C)cccc3C(C)(C)C)s2)cc1
inactive: DU-145 > 100 µM | NCI-H23 > 100 µM | HCT-116 > 100 µM | HOP-62 38.5 µM | COLO 205 > 100 µM | PC-3 > 100 µM | OVCAR-5 > 100 µM | IGROV-1 > 100 µM | MCF7 > 100 µM | RPMI-8226 > 100 µM | CCRF-CEM > 100 µM | SNB-19 > 100 µM | SF-295 > 100 µM | SW-620 > 100 µM | A549 > 100 µM | SN12C > 100 µM | MDA-N > 100 µM | UACC-257 > 100 µM | T47D > 100 µM

COc1cccc(C2c3cc4c(cc3OC(O)C2C)OCO4)c1OC (configuration not stated)
inactive: DU-145 2.98 µM | NCI-H23 14.4 µM | HCT-116 2.35 µM | HOP-62 17.4 µM | COLO 205 6.11 µM | PC-3 4.49 µM | OVCAR-5 16.2 µM | IGROV-1 4.65 µM | MCF7 5.28 µM | RPMI-8226 2.13 µM | CCRF-CEM 2.61 µM | SNB-19 11.2 µM | SF-295 3.26 µM | SW-620 3.64 µM | A549 4.02 µM | SN12C 4.78 µM | MDA-N 8.67 µM | UACC-257 7.18 µM | T47D 3.36 µM

CCOC(=O)C(=O)C(=O)NN(C)C1=NCCN1
inactive: DU-145 > 100 µM | NCI-H23 > 100 µM | HCT-116 > 100 µM | HOP-62 > 100 µM | COLO 205 > 100 µM | PC-3 > 100 µM | OVCAR-5 > 100 µM | IGROV-1 > 100 µM | MCF7 > 100 µM | RPMI-8226 > 100 µM | CCRF-CEM > 100 µM | SNB-19 > 100 µM | SF-295 > 100 µM | SW-620 > 100 µM | A549 > 100 µM | SN12C > 100 µM | MDA-N > 100 µM | UACC-257 > 100 µM | T47D > 100 µM

O=C1C=C(Br)c2c(Br)sc(Br)c21
inactive: DU-145 14.9 µM | NCI-H23 10.6 µM | HCT-116 6.05 µM | HOP-62 24.9 µM | COLO 205 4.83 µM | PC-3 10.9 µM | OVCAR-5 19.1 µM | IGROV-1 5.35 µM | MCF7 3.85 µM | RPMI-8226 2.99 µM | CCRF-CEM 1.59 µM | SNB-19 17.7 µM | SF-295 31.6 µM | SW-620 3.13 µM | A549 24.5 µM | SN12C 12.9 µM | MDA-N 13.9 µM | UACC-257 1.89 µM | T47D 7.13 µM

O=Nc1c(-c2c(O)[nH]c3ccccc23)[nH]c2ccccc12 [INDIRUBIN-3-MONOXIME]
inactive: DU-145 2.63 µM | NCI-H23 7.83 µM | HCT-116 2.52 µM | HOP-62 7.23 µM | COLO 205 12.5 µM | PC-3 3.72 µM | OVCAR-5 7.26 µM | IGROV-1 2.67 µM | MCF7 3.13 µM | RPMI-8226 3.95 µM | CCRF-CEM 4.4 µM | SNB-19 25.8 µM | SF-295 10.1 µM | SW-620 4.79 µM | A549 3.8 µM | SN12C 2.98 µM | MDA-N 4.58 µM | UACC-257 18.3 µM | T47D 4.3 µM

— ChEMBL document CHEMBL1201862, “PubChem BioAssay data set” (2004)
